# Reference: patent US8309718B2, “4-pyrazolyl-N-arylpyrimidin-2-amines and 4-pyrazolyl-N-heteroarylpyrimidin-2-amines as janus kinase inhibitors” (Incyte Corporation, priority 2007, dated 2012)
# Biological target: T1, human JAK2 (Homo sapiens, UniProt O60674)
# T1 construct: JAK2 (a.a. 828-1132); His tag (N); made in house; host or cells: insect cells (baculovirus)
# Test: In vitro JAK kinase assay (HTRF, phosphorylation of biotinylated peptide)
# Assay type: biochemical
# Settings: catalytic domain a.a. 828-1132, 30 μM ATP, 500 nM peptide, room temperature 1 hr; read-out: JAK-2 IC50
# How it was run: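 His-tagged human JAK2 catalytic domain (a.a. 828-1132), baculovirus/insect-cell expressed; phosphorylation of 500 nM biotinylated peptide at 30 μM ATP in 50 mM Tris pH 7.8, 100 mM NaCl, 5 mM DTT, 0.01% BSA. 1 h at room temperature, EDTA stop, HTRF read (Eu-Py20/SA-APC); IC50.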
# T1 sequence (O60674 828-1132): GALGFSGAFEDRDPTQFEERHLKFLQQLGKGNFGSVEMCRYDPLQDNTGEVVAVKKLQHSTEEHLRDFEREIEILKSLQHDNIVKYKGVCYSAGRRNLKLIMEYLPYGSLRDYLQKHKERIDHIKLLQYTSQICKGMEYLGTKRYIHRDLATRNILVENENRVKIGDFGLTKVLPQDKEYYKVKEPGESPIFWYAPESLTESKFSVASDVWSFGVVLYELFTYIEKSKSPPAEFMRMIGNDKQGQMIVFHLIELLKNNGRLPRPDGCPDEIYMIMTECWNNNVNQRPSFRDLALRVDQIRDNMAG
row,SMILES,IC50
1,"CS(=O)(=O)Nc1cccc(Nc2nccc(-c3cnn(C(CC#N)C4CCCC4)c3)n2)c1 (racemic) [Example 115, N-(3-(4-(1-(2-cyano-1-cyclopentylethyl)-1H-pyrazol-4-yl)pyrimidin-2-ylamino)phenyl)methanesulfonamide]",< 100 nM
2,"COC(=O)Nc1cccc(Nc2nccc(-c3cnn(C(CC#N)C4CCCC4)c3)n2)c1 (racemic) [Example 116, Methyl 3-(4-(1-(2-cyano-1-cyclopentylethyl)-1H-pyrazol-4-yl)pyrimidin-2-ylamino)phenylcarbamate]",< 100 nM
3,"CC(=O)Nc1cccc(Nc2nccc(-c3cnn(C(CC#N)C4CCCC4)c3)n2)c1 (racemic) [Example 117, N-(3-(4-(1-(2-cyano-1-cyclopentylethyl)-1H-pyrazol-4-yl)pyrimidin-2-ylamino)phenyl)acetamide]",< 100 nM
4,"N#CCC(C1CCCC1)n1cc(-c2ccnc(Nc3cccc(NC(=O)CN4CCCC4)c3)n2)cn1 (racemic) [Example 118, N-(3-(4-(1-(2-cyano-1-cyclopentylethyl)-1H-pyrazol-4-yl)pyrimidin-2-ylamino)phenyl)-2-(pyrrolidin-1-yl)acetamide]",< 100 nM
5,"CN1CCN(C(=O)c2ccc(Nc3nccc(-c4cnn(C(CC#N)C5CCCC5)c4)n3)cc2)CC1 (racemic) [Example 120, 3-cyclopentyl-3-(4-(2-(4-(4-methylpiperazine-1-carbonyl)phenylamino)pyrimidin-4-yl)-1H-pyrazol-1-yl)propanenitrile]",< 100 nM
6,"N#CCC(C1CCCC1)n1cc(-c2ccnc(Nc3ccc(C(=O)N4CCN(CCO)CC4)cc3)n2)cn1 (racemic) [Example 121, 3-cyclopentyl-3-(4-(2-(4-(4-(2-hydroxyethyl)piperazine-1-carbonyl)phenylamino)pyrimidin-4-yl)-1H-pyrazol-1-yl)propanenitrile]",< 100 nM
7,"N#CCC(C1CCCC1)n1cc(-c2ccnc(Nc3ccc(C(=O)N4CCCC4)cc3)n2)cn1 (racemic) [Example 122, 3-cyclopentyl-3-(4-(2-(4-(pyrrolidine-1-carbonyl)phenylamino)pyrimidin-4-yl)-1H-pyrazol-1-yl)propanenitrile]",< 100 nM
8,"N#CCC(C1CCCC1)n1cc(-c2ccnc(Nc3ccc(C(=O)N4CCNC(=O)C4)cc3)n2)cn1 (racemic) [Example 123, 3-cyclopentyl-3-(4-(2-(4-(3-oxopiperazine-1-carbonyl)phenylamino)pyrimidin-4-yl)-1H-pyrazol-1-yl)propanenitrile]",< 100 nM
9,"N#CCC(C1CCCC1)n1cc(-c2ccnc(Nc3ccc(C(=O)N4CCC(O)CC4)cc3)n2)cn1 (racemic) [Example 124, 3-cyclopentyl-3-(4-(2-(4-(4-hydroxypiperidine-1-carbonyl)phenylamino)pyrimidin-4-yl)-1H-pyrazol-1-yl)propanenitrile]",< 100 nM
10,"CCCN(CC1CC1)C(=O)c1ccc(Nc2nccc(-c3cnn(C(CC#N)C4CCCC4)c3)n2)cc1 (racemic) [Example 125, 4-(4-(1-(2-cyano-1-cyclopentylethyl)-1H-pyrazol-4-yl)pyrimidin-2-ylamino)-N-(cyclopropylmethyl)-N-propylbenzamide]",< 100 nM
11,"N#CCC(C1CCCC1)n1cc(-c2ccnc(Nc3ccc(C(=O)NCC4CC4)cc3)n2)cn1 (racemic) [Example 126, 4-(4-(1-(2-cyano-1-cyclopentylethyl)-1H-pyrazol-4-yl)pyrimidin-2-ylamino)-N-(cyclopropylmethyl)benzamide]",< 100 nM
12,"N#CCC(C1CCCC1)n1cc(-c2ccnc(Nc3ccc(C(=O)N4CCC4)cc3)n2)cn1 (racemic) [Example 128, 3-(4-(2-(4-(azetidine-1-carbonyl)phenylamino)pyrimidin-4-yl)-1H-pyrazol-1-yl)-3-cyclopentylpropanenitrile]",< 100 nM
13,"N#CCC(C1CCCC1)n1cc(-c2ccnc(Nc3ccc(N4CCCC4=O)cc3)n2)cn1 (racemic) [Example 129, 3-cyclopentyl-3-(4-(2-(4-(2-oxopyrrolidin-1-yl)phenylamino)pyrimidin-4-yl)-1H-pyrazol-1-yl)propanenitrile]",< 100 nM
14,"COc1cnc(Nc2ccc(N3CCCC3=O)cc2)nc1-c1cnn(C(CC#N)C2CCCC2)c1 (racemic) [Example 130, 3-cyclopentyl-3-(4-(5-methoxy-2-(4-(2-oxopyrrolidin-1-yl)phenylamino)pyrimidin-4-yl)-1H-pyrazol-1-yl)propanenitrile]",< 100 nM
15,"COc1cnc(Nc2ccc(-c3cnco3)cc2)nc1-c1cnn(C(CC#N)C2CCCC2)c1 (racemic) [Example 131, 3-cyclopentyl-3-(4-(5-methoxy-2-(4-(oxazol-5-yl)phenylamino)pyrimidin-4-yl)-1H-pyrazol-1-yl)propanenitrile]",< 100 nM
16,"COc1cnc(Nc2cccc(-c3cnco3)c2)nc1-c1cnn(C(CC#N)C2CCCC2)c1 (racemic) [Example 132, 3-cyclopentyl-3-(4-(5-methoxy-2-(3-(oxazol-5-yl)phenylamino)pyrimidin-4-yl)-1H-pyrazol-1-yl)propanenitrile]",< 100 nM
17,"COc1cnc(Nc2ccc(N3CCOCC3=O)cc2)nc1-c1cnn(C(CC#N)C2CCCC2)c1 (racemic) [Example 133, 3-cyclopentyl-3-(4-(5-methoxy-2-(4-(3-oxomorpholino)phenylamino)pyrimidin-4-yl)-1H-pyrazol-1-yl)propanenitrile]",< 100 nM
18,"COc1cnc(Nc2cccc(-c3ccnc(C)n3)c2)nc1-c1cnn(C(CC#N)C2CCCC2)c1 (racemic) [Example 134, 3-cyclopentyl-3-(4-(5-methoxy-2-(3-(2-methylpyrimidin-4-yl)phenylamino)pyrimidin-4-yl)-1H-pyrazol-1-yl)propanenitrile]",< 100 nM
19,"COc1cnc(Nc2ccc(N3CCCCC3=O)cc2)nc1-c1cnn(C(CC#N)C2CCCC2)c1 (racemic) [Example 135, 3-cyclopentyl-3-(4-(5-methoxy-2-(4-(2-oxopiperidin-1-yl)phenylamino)pyrimidin-4-yl)-1H-pyrazol-1-yl)propanenitrile]",< 100 nM
20,"COc1cnc(Nc2ccc(N3CCOC3=O)cc2)nc1-c1cnn(C(CC#N)C2CCCC2)c1 (racemic) [Example 136, 3-cyclopentyl-3-(4-(5-methoxy-2-(4-(2-oxooxazolidin-3-yl)phenylamino)pyrimidin-4-yl)-1H-pyrazol-1-yl)propanenitrile]",< 100 nM

# Further lines, results first:
row,IC50,SMILES
1,< 100 nM,"COc1cnc(Nc2ccc(NC(C)=O)cc2)nc1-c1cnn(C(CC#N)C2CCCC2)c1 (racemic) [Example 103, N-(4-(4-(1-(2-cyano-1-cyclopentylethyl)-1H-pyrazol-4-yl)-5-methoxypyrimidin-2-ylamino)phenyl)acetamide]"
2,< 100 nM,"COc1cnc(Nc2ccc(C(=O)N(C)C)cc2)nc1-c1cnn(C(CC#N)C2CCCC2)c1 (racemic) [Example 104, 4-(4-(1-(2-cyano-1-cyclopentylethyl)-1H-pyrazol-4-yl)-5-methoxypyrimidin-2-ylamino)-N,N-dimethylbenzamide]"
3,< 100 nM,"N#CCC(C1CCCC1)n1cc(-c2ccnc(Nc3ccc(N4CCCCC4=O)cc3)n2)cn1 (racemic) [Example 105, 3-cyclopentyl-3-(4-(2-(4-(2-oxopiperidin-1-yl)phenylamino)pyrimidin-4-yl)-1H-pyrazol-1-yl)propanenitrile]"
4,< 100 nM,"N#CCC(C1CCCC1)n1cc(-c2ccnc(Nc3ccc(N4CCCOC4=O)cc3)n2)cn1 (racemic) [Example 106, 3-cyclopentyl-3-(4-(2-(4-(2-oxo-1,3-oxazinan-3-yl)phenylamino)pyrimidin-4-yl)-1H-pyrazol-1-yl)propanenitrile]"
5,< 100 nM,"N#CCC(C1CCCC1)n1cc(-c2ccnc(Nc3ccc(N4CCOC4=O)cc3)n2)cn1 (racemic) [Example 107, 3-cyclopentyl-3-(4-(2-(4-(2-oxooxazolidin-3-yl)phenylamino)pyrimidin-4-yl)-1H-pyrazol-1-yl)propanenitrile]"
6,< 100 nM,"N#CCC(C1CCCC1)n1cc(-c2ccnc(Nc3cccc(N)c3)n2)cn1 (racemic) [Example 108, 3-(4-(2-(3-aminophenylamino)pyrimidin-4-yl)-1H-pyrazol-1-yl)-3-cyclopentylpropanenitrile]"
7,< 100 nM,"CNC(=O)c1cccc(Nc2nccc(-c3cnn(C(CC#N)C4CCCC4)c3)n2)c1 (racemic) [Example 109, 3-(4-(1-(2-cyano-1-cyclopentylethyl)-1H-pyrazol-4-yl)pyrimidin-2-ylamino)-N-methylbenzamide]"
8,< 100 nM,"CN(C)C(=O)c1cccc(Nc2nccc(-c3cnn(C(CC#N)C4CCCC4)c3)n2)c1 (racemic) [Example 110, 3-(4-(1-(2-cyano-1-cyclopentylethyl)-1H-pyrazol-4-yl)pyrimidin-2-ylamino)-N,N-dimethylbenzamide]"
9,< 100 nM,"N#CCC(C1CCCC1)n1cc(-c2ccnc(Nc3cccc(C(=O)N4CCC(O)CC4)c3)n2)cn1 (racemic) [Example 111, 3-cyclopentyl-3-(4-(2-(3-(4-hydroxypiperidine-1-carbonyl)phenylamino)pyrimidin-4-yl)-1H-pyrazol-1-yl)propanenitrile]"
10,< 100 nM,"N#CCC(C1CCCC1)n1cc(-c2ccnc(Nc3cccc(C(=O)NCCO)c3)n2)cn1 (racemic) [Example 112, 3-(4-(1-(2-cyano-1-cyclopentylethyl)-1H-pyrazol-4-yl)pyrimidin-2-ylamino)-N-(2-hydroxyethyl)benzamide]"
11,< 100 nM,"CCS(=O)(=O)Nc1cccc(Nc2nccc(-c3cnn(C(CC#N)C4CCCC4)c3)n2)c1 (racemic) [Example 114, N-(3-(4-(1-(2-cyano-1-cyclopentylethyl)-1H-pyrazol-4-yl)pyrimidin-2-ylamino)phenyl)ethanesulfonamide]"
